Where two headings read alike, the source gives them in different places.
How the values were obtained:
[1] = tested on: HCT116 isogenic IDH1-R132H mutant cells; assay: Cellular 2-HG assay using HCT116 mutant IDH1 cells (R132H), RapidFire mass spectrometry; assay type: cell-based; conditions: Homo sapiens, read-out: HCT116 IDH1 R132H IC50 (Range)
Description: (§1) Example 106—Cellular 2-HG assay using HCT116 mutant IDH1 cells
(§2) HCT116 isogenic IDH1-R132H and IDH1-R132C mutant cells were cultured in growth media (McCoy's 5 A, 10% fetal bovine serum, 1× antibiotic-antimycotic solution and 0.3 mg/mL G418) in 5% CO2 in an incubator at 37° C. To prepare the assay, cells were trypsinized and resuspended in assay media (McCoy's 5 A with no L-glutamine, 10% fetal bovine serum, 1× antibiotic-antimycotic solution and 0.3 mg/mL G418). An aliquot of 10,000 cells/100 μL was transferred to each well of a clear 96-well tissue culture plate. The cells were incubated in 5% CO2 at 37° C. in an incubator overnight to allow for proper cell attachment. An aliquot of 50 μL of compound containing assay media were then added to each well and the assay plate was kept in 5% CO2 at 37° C. in an incubator for 24 hours. The media was then removed from each well and 150 μL of a methanol/water mixture (80/20 v/v) was added to each well. The plates were kept at −80° C. freezer overnight to allow for complete cell lysis. An aliquot of 125 μL of extracted supernatant was analyzed by RapidFire high-throughout-mass spectrometry (Agilent) to determine the cellular 2-HG level. The IC50 of a given compound was calculated by fitting the dose response curve of cellular 2-HG inhibition at a given concentration with the four parameter logistic equation.

[2] = biological target: IDH1-R132H recombinant protein (Homo sapiens (Human), UniProt O75874, R132H); assay: IDH1-R132H enzymatic assay (inhibition of NADPH consumption, diaphorase/resazurin readout); assay type: biochemical; conditions: read-out: Enzyme IDH1 R132H IC50 (Range)
In short: (§3)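 Compound was preincubated 15 min at 25 °C with 30 nM IDH1-R132H or 10 nM IDH1-R132C in Tris pH 7.5 buffer with MgCl2, BSA and Triton X-100. Reaction with 2 mM α-ketoglutarate and 20 μM NADPH (solution concentrations) ran 45 min at 25 °C. Remaining NADPH was detected via diaphorase/resazurin fluorescence (ex 535/em 590 nm), and IC50 came from four-parameter fits.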

[3] = biological target: IDH1-R132C recombinant protein (Homo sapiens (Human), UniProt O75874, R132C); assay: IDH1-R132C enzymatic assay (inhibition of NADPH consumption, diaphorase/resazurin readout); assay type: biochemical; conditions: read-out: Enzyme IDH1 R132C IC50 (Range)
In short: as §3

[4] = tested on: HCT116 isogenic IDH1-R132C mutant cells; assay: Cellular 2-HG assay using HCT116 mutant IDH1 cells (R132C), RapidFire mass spectrometry; assay type: cell-based; conditions: Homo sapiens, read-out: HCT116 IDH1 R132C IC50 (Range)
Description: as §1, §2

[5] = HCT-116, cellular 2-HG level, HCT116 IDH1-R132H cells, 24 hours
[6] = HCT-116, cellular 2-HG level, HCT116 IDH1-R132C cells, 24 hours

Chain of IDH1-R132C recombinant protein (O75874 whole entry R132C): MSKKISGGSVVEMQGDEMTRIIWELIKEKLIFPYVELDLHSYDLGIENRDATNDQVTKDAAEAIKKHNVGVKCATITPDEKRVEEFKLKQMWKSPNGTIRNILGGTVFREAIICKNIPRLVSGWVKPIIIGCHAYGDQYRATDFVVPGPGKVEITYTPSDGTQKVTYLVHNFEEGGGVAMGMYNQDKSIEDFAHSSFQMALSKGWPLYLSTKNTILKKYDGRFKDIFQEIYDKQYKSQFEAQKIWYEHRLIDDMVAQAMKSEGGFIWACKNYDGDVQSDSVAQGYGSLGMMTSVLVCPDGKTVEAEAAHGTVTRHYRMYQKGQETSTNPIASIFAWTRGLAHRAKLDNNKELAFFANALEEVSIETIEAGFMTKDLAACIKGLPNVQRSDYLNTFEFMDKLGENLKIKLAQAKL
Chain of IDH1-R132H recombinant protein (O75874 whole entry R132H): as the sequence (O75874 whole entry R132C) above, with C132H counted along it

| Compound | IC50 [1, 5] [nM] | IC50 [2] [nM] | IC50 [3] [nM] | IC50 [4, 6] [nM] | IC50 ([1]; HCT-116, 24 h) [nM] | IC50 ([4]; HCT-116, 24 h) [nM] |
| --- | --- | --- | --- | --- | --- | --- |
| C[C@H](Nc1nccc(-c2cncn2CC(F)(F)F)n1)c1cc2cc(Cl)ccc2[nH]c1=O [Compound I-60, (S)-6-Chloro-3-(1-((4-(1-(2,2,2-trifluoroethyl)-1H-imidazol-5-yl)pyrimidin-2-yl)amino)ethyl)quinolin-2(1H)-one] | < 100 | < 100 | 100 to 1000 | 100 to 1000 | – | – |
| C[C@H](Nc1nccc(-c2cncn2CC2CC2)n1)c1cc2cc(Cl)ccc2[nH]c1=O [Compound I-61] | 100 to 1000 | < 100 | < 100 | 100 to 1000 | – | – |
| C[C@H](Nc1nccc(-c2cnc3ccccn23)n1)c1cc2cc(Cl)ccc2[nH]c1=O [Compound I-63, (S)-6-chloro-3-(1-((4-(imidazo[1,2-a]pyridin-3-yl)pyrimidin-2-yl)amino)ethyl)quinolin-2(1H)-one] | 100 to 1000 | < 100 | < 100 | 1000 to 10000 | – | – |
| CC(C)n1cncc1-c1ccnc(N[C@@H](C)c2cc3cc(Cl)ccc3[nH]c2=O)n1 [Compound I-64, (S)-6-chloro-3-(1-((4-(1-isopropyl-1H-imidazol-5-yl)pyrimidin-2-yl)amino)ethyl) quinolin-2(1H)-one] | 100 to 1000 | < 100 | 100 to 1000 | 100 to 1000 | – | – |
| C[C@H](Nc1nccc(-n2cccc2C(F)(F)F)n1)c1cc2cc(Cl)ccc2[nH]c1=O [Compound I-65, (S)-6-Chloro-3-(1-((4-(2-(triflouromethyl)-1H-pyrrol-1-yl)pyrimidin-2-yl)amino)ethyl) quinolin-2(1H)-one] | 100 to 1000 | 100 to 1000 | 1000 to 10000 | 1000 to 10000 | – | – |
| C[C@H](Nc1nccc(-c2cnnn2C)n1)c1cc2cc(Cl)ccc2[nH]c1=O [Compound I-66, (S)-6-chloro-3-(1-((4-(1-methyl-1H-1,2,3-triazol-5-yl)pyrimidin-2-yl)amino)ethyl)quinolin-2(1H)-one] | 100 to 1000 | 100 to 1000 | 1000 to 10000 | 100 to 1000 | – | – |
| C[C@H](Nc1nccc(-c2cncn2Cc2ccccc2)n1)c1cc2cc(Cl)ccc2[nH]c1=O [Compound I-68] | < 100 | < 100 | < 100 | 100 to 1000 | – | – |
| C[C@H](Nc1nccc(-c2cncn2C)n1)c1cc2cc(Cl)ccc2[nH]c1=O [Compound I-71] | < 100 | < 100 | 100 to 1000 | < 100 | – | – |
| CC(C)n1nccc1-c1ccnc(N[C@@H](C)c2cc3cc(Cl)ccc3[nH]c2=O)n1 [Compound I-75] | 100 to 1000 | < 100 | 100 to 1000 | 1000 to 10000 | – | – |
| CC(C)Cn1cncc1-c1ccnc(N[C@@H](C)c2cc3cc(Cl)ccc3[nH]c2=O)n1 [Compound I-85] | 100 to 1000 | 100 to 1000 | 100 to 1000 | 100 to 1000 | – | – |
| C[C@H](Nc1nccc(-c2ccn[nH]2)n1)c1cc2cc(Cl)ccc2[nH]c1=O [Compound I-87] | 100 to 1000 | 100 to 1000 | 1000 to 10000 | 1000 to 10000 | – | – |
| C[C@H](Nc1nccc(-c2cnsc2)n1)c1cc2cc(Cl)ccc2[nH]c1=O [Compound I-88] | 100 to 1000 | < 100 | 100 to 1000 | 1000 to 10000 | – | – |
| Cc1ncccc1-c1ccnc(N[C@@H](C)c2cc3cc(Cl)ccc3[nH]c2=O)n1 [Compound I-90] | 1000 to 10000 | 100 to 1000 | 1000 to 10000 | 1000 to 10000 | – | – |
| C[C@H](Nc1nccc(-c2cncc3ccccc23)n1)c1cc2cc(Cl)ccc2[nH]c1=O [Compound I-92] | 100 to 1000 | 100 to 1000 | 100 to 1000 | 1000 to 10000 | – | – |
| C[C@H](Nc1nccc(-c2cccnc2)n1)c1cc2cc(Cl)ccc2[nH]c1=O [Compound I-94] | < 100 | 100 to 1000 | 100 to 1000 | 1000 to 10000 | – | – |
| C[C@H](Nc1nccc(-c2ccncc2)n1)c1cc2cc(Cl)ccc2[nH]c1=O [Compound I-95] | 100 to 1000 | 100 to 1000 | 100 to 1000 | 1000 to 10000 | – | – |

| Compound | IC50 [1, 5] [nM] | IC50 [2] [nM] | IC50 [3] [nM] | IC50 [4, 6] [nM] | IC50 ([1]; HCT-116, 24 h) [nM] | IC50 ([4]; HCT-116, 24 h) [nM] |
| --- | --- | --- | --- | --- | --- | --- |
| Cc1cnccc1-c1ccnc(N[C@@H](C)c2cc3cc(Cl)ccc3[nH]c2=O)n1 [Compound I-96] | < 100 | < 100 | 100 to 1000 | 100 to 1000 | – | – |
| C[C@H](Nc1nccc(-c2ccccc2)n1)c1cc2cc(Cl)ccc2[nH]c1=O [Compound I-101] | 100 to 1000 | < 100 | 100 to 1000 | 100 to 1000 | – | – |
| C[C@H](Nc1nccc([S@@+](C)[O-])n1)c1cc2cc(Cl)ccc2[nH]c1=O [Compound I-112] | 100 to 1000 | 100 to 1000 | 1000 to 10000 | 1000 to 10000 | – | – |
| C[C@H](Nc1nccc([S@+](C)[O-])n1)c1cc2cc(Cl)ccc2[nH]c1=O [Compound I-113] | < 100 | < 100 | 100 to 1000 | 100 to 1000 | – | – |
| C[C@H](Nc1nccc(C(N)=O)n1)c1cc2cc(Cl)ccc2[nH]c1=O [Compound I-114, (S)-2-((1-(6-chloro-2-oxo-1,2-dihydroquinolin-3-yl)ethyl)amino)pyrimidine-4-carboxamide] | 100 to 1000 | < 100 | 100 to 1000 | 100 to 1000 | – | – |
| CNC(=O)c1ccnc(N[C@@H](C)c2cc3cc(Cl)ccc3[nH]c2=O)n1 [Compound I-115] | 100 to 1000 | 100 to 1000 | 100 to 1000 | 100 to 1000 | – | – |
| CC(C)CNC(=O)c1ccnc(N[C@@H](C)c2cc3cc(Cl)ccc3[nH]c2=O)n1 [Compound I-116] | 100 to 1000 | 100 to 1000 | 100 to 1000 | 1000 to 10000 | – | – |
| C[C@H](Nc1nccc(N2CCNC2=O)n1)c1cc2cc(Cl)ccc2[nH]c1=O [Compound I-123, (S)-6-Chloro-3-(1-((4-(2-oxoimidazolidin-1-yl)pyrimidin-2-yl)amino)ethyl)quinolin-2(1H)-one] | 100 to 1000 | < 100 | 100 to 1000 | 100 to 1000 | – | – |
| COC(=O)c1ccnc(N[C@@H](C)c2cc3cc(Cl)ccc3[nH]c2=O)n1 [Compound I-129] | 1000 to 10000 | 100 to 1000 | 1000 to 10000 | 1000 to 10000 | – | – |
| COc1nc(NC(C)c2cc3cc(Cl)c(F)cc3[nH]c2=O)ncc1C#N (centres unmarked) [Compound I-142] | – | < 100 | 100 to 1000 | – | < 100 | 100 to 1000 |
| COc1cc2[nH]c(=O)c([C@H](C)Nc3ncc(C#N)c(OC)n3)cc2cc1Cl [Compound I-143, (S)-2-((1-(6-Chloro-7-methoxy-2-oxo-1,2-dihydroquinolin-3-yl)ethyl)amino)-4-methoxypyrimidine-5-carbonitrile] | – | < 100 | < 100 | – | < 100 | < 100 |
| COc1cc2[nH]c(=O)c(C(C)Nc3ncc(C#N)c(OC)n3)cc2cc1Cl (centres unmarked) [Compound I-145] | – | < 100 | < 100 | – | < 100 | 100 to 1000 |
| COc1cc2[nH]c(=O)c(C(C)Nc3nccc(N4CCOC4=O)n3)cc2cc1Cl (centres unmarked) [Compound I-146] | < 100 | < 100 | 100 to 1000 | 100 to 1000 | – | – |
| CC(=O)Nc1ccnc(NC(C)c2cc3cc(Cl)c(OCc4ccccn4)cc3[nH]c2=O)n1 (centres unmarked) [Compound I-149] | < 100 | < 100 | < 100 | < 100 | – | – |
| COc1nc(N[C@@H](C)c2cc3cc(Cl)c(OCc4ccccn4)cc3[nH]c2=O)ncc1C#N [Compound I-151, (S)-2-((1-(6-Chloro-2-oxo-7-(pyridin-2-ylmethoxy)-1,2-dihydroquinolin-3-yl)ethyl)amino)-4-methoxypyrimidine-5-carbonitrile] | < 100 | < 100 | < 100 | < 100 | – | – |
| C[C@H](Nc1ncc(C#N)c(O)n1)c1cc2cc(Cl)c(OCc3ccccn3)cc2[nH]c1=O [Compound I-152, (S)-2-((1-(6-chloro-2-oxo-7-(pyridin-2-ylmethoxy)-1,2-dihydroquinolin-3-yl)ethyl)amino)-4-hydroxypyrimidine-5-carbonitrile] | 100 to 1000 | < 100 | 1000 to 10000 | 1000 to 10000 | – | – |
